Converted amounts (≈) assume the structure as drawn.
Experiments:
Assay type in all cases: functional
Nephotettix cincticeps = experiment: Insecticidal activity against Nephotettix cincticeps (green rice leafhopper) in compound treated rice seedlings assessed as mortality at 500 ppm
Myzus persicae = experiment: Insecticidal activity against Myzus persicae (green peach aphid) in compound treated radish leaf assessed as mortality at 500 ppm
Plutella xylostella = experiment: Insecticidal activity against Plutella xylostella (diamondback moth) in compound treated radish leaf assessed as mortality at 500 ppm
Tetranychus urticae = experiment: Acaricidal activity against Tetranychus urticae (two-spotted spider mite) in compound treated kidney bean leaf assessed as larvicidal activity

Row | SMILES | mortality at 500 ppm (Nephotettix cincticeps) [%] | mortality at 500 ppm (Myzus persicae) [%] | mortality at 500 ppm (Plutella xylostella) [%] | LC50 (Tetranychus urticae) [µg/mL]
1 | Fc1ccc(C2COC(c3c(F)cccc3F)=N2)cc1F (stereo not drawn) | 0 | 0 | 0 | 0.1 (≈ 0.339 µM)
2 | COc1cccc(C2COC(c3c(F)cccc3F)=N2)c1 (stereo not drawn) | 0 | 0 | 0 | 1 (≈ 3.46 µM)
3 | Fc1cc(C2COC(c3c(F)cccc3F)=N2)ccc1Cl (stereo not drawn) | 60 | 100 | 35 | 0.01 (≈ 0.0321 µM)
4 | CCCCCCc1ccc(C2COC(c3c(F)cccc3F)=N2)cc1 (stereo not drawn) | 0 | 100 | 10 | < 0.001
5 | CCCCCCCCCCc1ccc(C2COC(c3c(F)cccc3F)=N2)c(F)c1 (stereo not drawn) | 0 | 10 | 100 | 0.001 (≈ 0.0024 µM)
6 | CCCOc1cc(C(C)C)ccc1C1COC(c2c(F)cccc2F)=N1 (stereo not drawn) | 100 | 100 | 85 | < 0.001
7 | CCOc1ccc(C2COC(c3c(F)cccc3F)=N2)cc1 (stereo not drawn) | 0 | 100 | 35 | 0.001 (≈ 0.0033 µM)
8 | Fc1cccc(F)c1C1=NC(c2cccc(Cl)c2)CO1 (stereo not drawn) | 0 | 0 | 0 | 1 (≈ 3.4 µM)
9 | CCCCc1ccc(C2COC(c3c(F)cccc3F)=N2)cc1 (stereo not drawn) | 10 | 100 | 0 | < 0.001
10 | Fc1cc(Cl)ccc1C1COC(c2c(F)cccc2F)=N1 (stereo not drawn) | 0 | 100 | 0 | < 0.001
11 | Fc1ccc(C2COC(c3c(F)cccc3F)=N2)cc1Cl (stereo not drawn) | 10 | 100 | 60 | 0.1 (≈ 0.321 µM)
12 | CCCCCCCCc1ccc(C2COC(c3c(F)cccc3F)=N2)c(Cl)c1 (stereo not drawn) | 0 | 100 | 85 | < 0.001
13 | CCCCCCc1ccc(C2COC(c3c(F)cccc3F)=N2)c(F)c1 (stereo not drawn) | 60 | 100 | 100 | < 0.001
14 | CCCCCc1ccc(C2COC(c3c(F)cccc3F)=N2)c(OCCC)c1 (stereo not drawn) | 60 | 85 | 85 | 0.001 (≈ 0.00258 µM)
15 | CCCCOc1cc(F)ccc1C1COC(c2c(F)cccc2F)=N1 (stereo not drawn) | 100 | 60 | 85 | < 0.001
16 | Cc1ccc(C2COC(c3c(F)cccc3F)=N2)c(C)c1 (stereo not drawn) | 100 | 100 | 35 | 10 (≈ 34.8 µM)
17 | CCCCCCCCCCc1ccc(C2COC(c3c(F)cccc3F)=N2)c(Cl)c1 (stereo not drawn) | 0 | 0 | 85 | 0.1 (≈ 0.23 µM)
18 | Fc1ccc(C2COC(c3c(F)cccc3F)=N2)cc1 (stereo not drawn) | 10 | 85 | 85 | 0.1 (≈ 0.361 µM)
19 | Fc1cccc(F)c1C1=NC(c2ccc(C(F)(F)F)cc2)CO1 (stereo not drawn) | 60 | 100 | 85 | 0.01 (≈ 0.0306 µM)

Row | SMILES | mortality at 500 ppm (Nephotettix cincticeps) [%] | mortality at 500 ppm (Myzus persicae) [%] | mortality at 500 ppm (Plutella xylostella) [%] | LC50 (Tetranychus urticae) [µg/mL]
20 | Cc1cccc(C2COC(c3c(F)cccc3F)=N2)c1 (stereo not drawn) | 0 | 0 | 0 | 10 (≈ 36.6 µM)
21 | CCCCCCCCCCOc1ccc(C2COC(c3c(F)cccc3F)=N2)cc1 (stereo not drawn) | 10 | 100 | 100 | < 0.001
22 | Cc1ccccc1C1COC(c2c(F)cccc2F)=N1 (stereo not drawn) | 10 | 0 | 0 | 10 (≈ 36.6 µM)
23 | CCCCCCCCCCCCCCCc1ccc(C2COC(c3c(F)cccc3F)=N2)cc1 (stereo not drawn) | 0 | 0 | 85 | 0.001 (≈ 0.00213 µM)
24 | CC(C)Cc1ccc(C2COC(c3c(F)cccc3F)=N2)c(Cl)c1 (stereo not drawn) | 60 | 100 | 100 | < 0.001
25 | CCCCCCCCCCCCCCOc1ccc(C2COC(c3c(F)cccc3F)=N2)cc1 (stereo not drawn) | 10 | 60 | 85 | 0.01 (≈ 0.0212 µM)
26 | Fc1cccc(F)c1C1=NC(c2ccc(Cl)cc2Cl)CO1 (stereo not drawn) | 60 | 100 | 60 | 0.01 (≈ 0.0305 µM)
27 | CC(C)(C)c1ccc(C2COC(c3c(F)cccc3F)=N2)cc1 (stereo not drawn) | 60 | 100 | 0 | < 0.001
28 | C[S+]([O-])c1ccc(C2COC(c3c(F)cccc3F)=N2)cc1 (stereo not drawn) | 0 | 60 | 60 | 10 (≈ 31.1 µM)
29 | COc1cc(F)ccc1C1COC(c2c(F)cccc2F)=N1 (stereo not drawn) | 100 | 100 | 10 | 0.1 (≈ 0.325 µM)
30 | CCOc1ccccc1C1COC(c2c(F)cccc2F)=N1 (stereo not drawn) | 100 | 0 | 10 | 10 (≈ 33 µM)
31 | CCCCOc1cc(C(C)(C)C)ccc1C1COC(c2c(F)cccc2F)=N1 (stereo not drawn) | 0 | 100 | 35 | 0.01 (≈ 0.0258 µM)
32 | CCCCCCCCCc1ccc(C2COC(c3c(F)cccc3F)=N2)c(OC)c1 (stereo not drawn) | 10 | 100 | 100 | 0.001 (≈ 0.00241 µM)
33 | CCCCOc1ccc(C2COC(c3c(F)cccc3F)=N2)cc1 (stereo not drawn) | 0 | 100 | 0 | < 0.001
34 | CCOc1cc(C(C)C)ccc1C1COC(c2c(F)cccc2F)=N1 (stereo not drawn) | 100 | 100 | 60 | 0.01 (≈ 0.029 µM)
35 | Cc1cc(Cl)ccc1C1COC(c2c(F)cccc2F)=N1 (stereo not drawn) | 35 | 100 | 10 | 0.1 (≈ 0.325 µM)
36 | CCCCCCCCCCc1ccc(C2COC(c3c(F)cccc3F)=N2)c(OC)c1 (stereo not drawn) | 10 | 100 | 85 | 0.01 (≈ 0.0233 µM)
37 | COc1cc(Cl)ccc1C1COC(c2c(F)cccc2F)=N1 (stereo not drawn) | 100 | 100 | 10 | 0.1 (≈ 0.309 µM)
38 | Fc1ccccc1C1COC(c2c(F)cccc2F)=N1 (stereo not drawn) | 35 | 60 | 10 | 1 (≈ 3.61 µM)

Row | SMILES | mortality at 500 ppm (Nephotettix cincticeps) [%] | mortality at 500 ppm (Myzus persicae) [%] | mortality at 500 ppm (Plutella xylostella) [%] | LC50 (Tetranychus urticae) [µg/mL]
39 | Oc1ccc(C2COC(c3c(F)cccc3F)=N2)cc1 (stereo not drawn) | 60 | 0 | 10 | 10 (≈ 36.3 µM)
40 | Fc1ccc(C2COC(c3c(F)cccc3F)=N2)c(F)c1 (stereo not drawn) | 35 | 100 | 85 | 0.01 (≈ 0.0339 µM)
41 | CS(=O)(=O)c1ccc(C2COC(c3c(F)cccc3F)=N2)cc1 (stereo not drawn) | 0 | 85 | 60 | 100 (≈ 296 µM)
42 | CC(C)Sc1ccc(C2COC(c3c(F)cccc3F)=N2)cc1 (stereo not drawn) | 10 | 85 | 10 | 0.1 (≈ 0.3 µM)
43 | CCCCCCCCCCCCc1ccc(C2COC(c3c(F)cccc3F)=N2)cc1 (stereo not drawn) | 0 | 85 | 100 | < 0.001
44 | CCc1ccccc1C1COC(c2c(F)cccc2F)=N1 (stereo not drawn) | 60 | 0 | 0 | 1 (≈ 3.48 µM)
45 | CCCCCCCCc1ccc(C2COC(c3c(F)cccc3F)=N2)cc1 (stereo not drawn) | 0 | 100 | 85 | < 0.001
46 | CCOc1cc(Cl)ccc1C1COC(c2c(F)cccc2F)=N1 (stereo not drawn) | 100 | 100 | 100 | 0.1 (≈ 0.296 µM)
47 | Fc1cccc(F)c1C1=NC(c2ccc(Br)cc2)CO1 (stereo not drawn) | 10 | 100 | 35 | 0.001 (≈ 0.00296 µM)
48 | Fc1cccc(F)c1C1=NC(c2ccccc2Cl)CO1 (stereo not drawn) | 85 | 100 | 35 | 0.1 (≈ 0.34 µM)
49 | CC(C)Cc1ccc(C2COC(c3c(F)cccc3F)=N2)cc1 (stereo not drawn) | 0 | 100 | 60 | < 0.001
50 | COc1ccccc1C1COC(c2c(F)cccc2F)=N1 (stereo not drawn) | 10 | 0 | 0 | 10 (≈ 34.6 µM)
51 | CCCCCCCCc1ccc(C2COC(c3c(F)cccc3F)=N2)c(C)c1 (stereo not drawn) | 100 | 100 | 100 | < 0.001
52 | CCCCCCCCCCCCCOc1ccc(C2COC(c3c(F)cccc3F)=N2)cc1 (stereo not drawn) | 0 | 85 | 35 | 0.001 (≈ 0.00219 µM)
53 | CCCCCCc1ccc(C2COC(c3c(F)cccc3F)=N2)cc1F (stereo not drawn) | 0 | 0 | 0 | 0.1 (≈ 0.277 µM)
54 | CCOc1cc(F)ccc1C1COC(c2c(F)cccc2F)=N1 (stereo not drawn) | 100 | 100 | 85 | 0.001 (≈ 0.00311 µM)
55 | Cc1ccc(C2COC(c3c(F)cccc3F)=N2)cc1 (stereo not drawn) | 60 | 100 | 0 | 0.1 (≈ 0.366 µM)
56 | CCc1ccc(C2COC(c3c(F)cccc3F)=N2)cc1 (stereo not drawn) | 60 | 100 | 0 | 0.001 (≈ 0.00348 µM)
57 | CCc1ccc(C2COC(c3c(F)cccc3F)=N2)c(Cl)c1 (stereo not drawn) | 0 | 0 | 0 | 0.001 (≈ 0.00311 µM)

From ChEMBL document CHEMBL3045663, “Synthesis and Activity of Novel Acaricidal/Insecticidal 2, 4-Diphenyl-1, 3-oxazolines” (J Pestic Sci, 2002)
